{"source": "patent US20150268223A1", "about": "“MICR[…]-CULTURE SYSTEMS AS INFECTIOUS DISEASE ANALYSIS PLATFORMS” (Massachusetts Institute of Technology, priority 2008, published 2015)", "test_system": "retroviral pseudoparticles bearing the E1/E2 glycoproteins of the Hepatitis C virus (HCV) genotype 1a strain (H77)", "type": "cell-based", "data": [{"smiles": "O=C(O)CN(CCN(CC(=O)O)CC(=O)O)CC(=O)O", "note": "[EDTA]", "values": [{"measurement": "access of micropatterned co-cultures to viral pseudoparticles and virus", "value": "dramatically improves access"}]}]}
